Measured values taken from patent US9962334B2, “Ophthalmic device having therapeutic agent delivery capability and method of forming same” (Novartis AG, priority 2008, dated 2018).
Marks after values point to notes of the source that are not given here.

Tests used:
[1] = test system: LEC migration and proliferation; test: In vitro inhibition of LEC migration and proliferation; format: cell-based; details: in vitro studies
[2] = cited from earlier work
[3] = cited from earlier work; remark: listed apart in the source

For `COc1cc2c(c(OC)c1OC)-c1ccc(OC)c(=O)cc1[C@@H](NC(C)=O)CC2` [Colchicine], the “concentration as low as which LEC migration and proliferation was inhibited” value [1] is given as 0.0005 mg/mL, the “Exp. Log P/Hydrophobicity” value [2] is given as 1.3 and the “log P (PC log P)” value [2] is given as 1.3.
For `O=C(O)Cc1ccccc1Nc1c(Cl)cccc1Cl` [Diclofenac Sodium], the “log P (PC log P)” value [2] is given as 1.1.
With `CO[C@@]12[C@H](COC(N)=O)C3=C(C(=O)C(C)=C(N)C3=O)N1C[C@@H]1N[C@@H]12` [Mitomycin-C] the “concentration as low as which LEC migration and proliferation was inhibited” value [1] was 0.0005 mg/mL.
For `O=C(c1ccccc1)c1ccc2n1CCC2C(=O)O` (stereo not drawn) [Ketorolac], the “Exp. Log P/Hydrophobicity” value [2] is given as 2.1 and the “Water Solubility” value [3] is given as 25 mg/mL.
For `Nc1c(CC(=O)O)cccc1C(=O)c1ccc(Br)cc1` [Bromfenac], the “Water Solubility” value [3] is listed as 0.0126 mg/mL.
In the case of `NC(=O)Cc1cccc(C(=O)c2ccccc2)c1N` [Nepafenac], the “Exp. Log P/Hydrophobicity” value [2] is listed as 2.11* and the “log P (PC log P)” value [2] is listed as 2.1.
In the case of `O=C(O)Cc1ccccc1Nc1c(Cl)cccc1Cl` [Diclofenac], the “soluble in water up to” value [3] is listed as “up to 50 mg/mL”.
For `O=C1O[C@H]([C@@H](O)CO)C(O)=C1O` [Ascorbic Acid], the “Exp. Log P/Hydrophobicity” value [2] is listed as −0.5.
